{
  "source": "patent US8138220B2",
  "about": "“[2-(6-fluoro-1H-indol-3-ylsulfanyl)benzyl]methyl amine for the treatment of affective disorders” (H. Lundbeck A/S, priority 2006, dated 2012)",
  "key": {"[1]": {"system": "telemeterised Beagle dogs", "assay": "Effect on blood pressure in telemeterised Beagle dogs", "assay_type": "in vivo, dog", "method": "The cardiovascular effects of compounds of the present invention were investigated in telemeterised Beagle dogs in the doses 0.25, 0.50 and 1.0 mg/kg given by gavage. Amount of compound is calculated as the free base. Six dogs were used in the experiment, three males and three females."}, "[2]": {"target": "T1, serotonin reuptake (Rattus norvegicus, UniProt P31652)", "T1 construct": "rat cortical synaptosome preparation; from tissue; host or cells: rat cortical synaptosomes", "T1 sequence (P31652 whole entry)": "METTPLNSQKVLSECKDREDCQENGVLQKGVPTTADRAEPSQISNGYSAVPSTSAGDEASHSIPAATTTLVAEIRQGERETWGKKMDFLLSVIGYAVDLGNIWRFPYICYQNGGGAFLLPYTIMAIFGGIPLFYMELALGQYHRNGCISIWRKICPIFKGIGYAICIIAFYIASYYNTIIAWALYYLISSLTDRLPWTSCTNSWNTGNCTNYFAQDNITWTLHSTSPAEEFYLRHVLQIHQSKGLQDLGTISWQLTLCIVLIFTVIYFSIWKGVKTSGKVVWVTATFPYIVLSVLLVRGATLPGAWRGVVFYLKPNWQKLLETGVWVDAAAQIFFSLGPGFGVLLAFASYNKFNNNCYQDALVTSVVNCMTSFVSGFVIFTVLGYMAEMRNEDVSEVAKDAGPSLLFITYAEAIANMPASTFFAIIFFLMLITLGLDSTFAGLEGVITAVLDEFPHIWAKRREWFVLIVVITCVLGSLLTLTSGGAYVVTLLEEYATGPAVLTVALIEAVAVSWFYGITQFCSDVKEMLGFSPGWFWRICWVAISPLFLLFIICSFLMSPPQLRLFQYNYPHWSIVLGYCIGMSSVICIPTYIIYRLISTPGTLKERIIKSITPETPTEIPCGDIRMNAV", "assay": "Serotonin transport inhibition, [3H]5-HT uptake in rat cortical synaptosomes", "assay_type": "biochemical", "settings": "[3H]5-HT 10 nM", "method": "(§1) Aliquots of test compound and rat cortical synaptosome preparation were pre-incubated for 10 min/37° C., and then added [^3H]NE or [^3H]5-HT (final concentration 10 nM). Non-specific uptake was determined in the presence of 10 μM talsupram or citalopram and the total uptake was determined in the presence of buffer. Aliquots were incubated for 15 minutes at 37° C. After the incubation [^3H]NE or [^3H]5-HT taken up by synaptosomes was separated by filtration through Unifilter GF/C, presoaked in 0.1% PEI for 30 minutes, using a Tomtec CellHarvester program. Filters were washed and counted in a Wallac MicroBeta counter."}, "[3]": {"target": "T2, noradrenalin reuptake (Rattus norvegicus, UniProt Q63380)", "T2 construct": "rat cortical synaptosome preparation; from tissue; host or cells: rat cortical synaptosomes", "T2 sequence (Q63380 1-617)": "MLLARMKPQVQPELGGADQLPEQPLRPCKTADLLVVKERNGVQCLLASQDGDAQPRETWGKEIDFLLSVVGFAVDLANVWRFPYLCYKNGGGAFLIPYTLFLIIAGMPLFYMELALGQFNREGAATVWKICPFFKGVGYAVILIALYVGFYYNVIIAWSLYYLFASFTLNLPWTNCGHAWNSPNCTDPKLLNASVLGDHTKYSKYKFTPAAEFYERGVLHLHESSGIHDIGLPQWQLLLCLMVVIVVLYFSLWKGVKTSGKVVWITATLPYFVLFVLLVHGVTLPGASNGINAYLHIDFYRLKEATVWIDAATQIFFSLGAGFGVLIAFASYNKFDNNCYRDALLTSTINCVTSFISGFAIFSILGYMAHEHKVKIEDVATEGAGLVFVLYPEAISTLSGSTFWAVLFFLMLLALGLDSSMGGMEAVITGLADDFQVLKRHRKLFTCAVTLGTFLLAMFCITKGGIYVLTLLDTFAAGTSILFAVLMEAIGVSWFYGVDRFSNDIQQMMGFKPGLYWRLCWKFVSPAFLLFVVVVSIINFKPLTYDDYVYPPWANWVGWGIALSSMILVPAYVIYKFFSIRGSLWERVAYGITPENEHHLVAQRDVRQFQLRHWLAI", "assay": "Noradrenalin transport inhibition, [3H]NE uptake in rat cortical synaptosomes", "assay_type": "biochemical", "settings": "[3H]NE 10 nM", "method": "as §1"}, "[4]": {"target": "rat 5-HT2A receptor (Rattus norvegicus, UniProt P14842)", "sequence (P14842 whole entry)": "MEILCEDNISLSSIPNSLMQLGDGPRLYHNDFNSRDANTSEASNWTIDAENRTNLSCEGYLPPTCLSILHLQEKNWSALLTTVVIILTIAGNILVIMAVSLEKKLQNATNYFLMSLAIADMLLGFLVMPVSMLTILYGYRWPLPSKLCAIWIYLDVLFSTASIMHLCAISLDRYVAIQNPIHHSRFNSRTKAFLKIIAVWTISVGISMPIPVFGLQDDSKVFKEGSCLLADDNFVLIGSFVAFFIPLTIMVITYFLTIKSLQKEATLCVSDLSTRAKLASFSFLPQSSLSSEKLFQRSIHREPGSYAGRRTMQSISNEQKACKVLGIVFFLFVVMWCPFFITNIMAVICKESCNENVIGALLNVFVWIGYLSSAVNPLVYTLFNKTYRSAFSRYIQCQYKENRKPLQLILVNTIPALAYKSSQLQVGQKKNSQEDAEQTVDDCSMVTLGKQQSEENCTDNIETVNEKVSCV", "assay": "Ki for rat versus human 5-HT2A receptor", "assay_type": "binding"}, "[5]": {"target": "T3, human alpha1A-7 receptors (Homo sapiens, UniProt P35348)", "T3 sequence (P35348 1-423 limits assumed)": "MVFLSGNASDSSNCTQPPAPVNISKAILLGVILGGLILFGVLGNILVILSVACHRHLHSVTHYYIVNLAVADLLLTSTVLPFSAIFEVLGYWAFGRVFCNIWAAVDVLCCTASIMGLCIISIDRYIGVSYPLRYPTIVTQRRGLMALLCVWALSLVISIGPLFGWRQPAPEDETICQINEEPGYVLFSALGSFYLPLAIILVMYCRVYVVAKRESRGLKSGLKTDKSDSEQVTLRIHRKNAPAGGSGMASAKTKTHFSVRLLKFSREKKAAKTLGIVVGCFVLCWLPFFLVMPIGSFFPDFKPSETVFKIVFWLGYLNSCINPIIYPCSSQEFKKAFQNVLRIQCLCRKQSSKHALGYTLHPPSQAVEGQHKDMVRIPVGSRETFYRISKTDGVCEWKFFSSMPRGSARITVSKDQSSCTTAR", "assay": "α1A functional assay, adrenaline evoked Ca2+ release in CHO cells (FLIPR)", "assay_type": "cell-based", "settings": "CHO cells expressing human alpha1A-7 receptors", "method": "All cells were cultured in DMEM medium supplemented with 10% BCS, 4 mM L-glutamine (or 2 mM in the case of COS-7), and 100 units/ml penicillin plus 100 μg/ml streptomycin, at 37° C., in 5% CO2.\nTwenty-four hours prior to assays, CHO cells expressing the human alpha1A-7 receptors were seeded into 384-well black wall microtiter plates coated with poly-D-lysine. Culture medium was aspirated and cells were dye-loaded with 1.5 μM Fluo-4 in assay buffer composed of Hank's Balanced Salt Solution (138 mM NaCl, 5 mM KCl, 1.3 mM CaCl2, 0.5 mM MgCl2, 0.4 mM MgSO4, 0.3 mM KH2PO4, 0.3 mM Na2HPO4, 5.6 mM glucose) plus 20 mM HEPES pH 7.4, 0.05% BSA and 2.5 mM probenicid (50 μl/well) for 1 hour in 5% CO2 at 37° C. After excess dye was discarded, cells were washed in assay buffer and layered with a final volume equal to 45 μl/well (or 30 ul/well for antagonist assay). […] Laser excitation energy was adjusted so that basal fluorescence readings were approximately 8,000 relative fluorescent units (RFU). Cells were then stimulated at room temperature with agonists diluted in assay buffer (15 μl), and RFU were measured at 1.5 second intervals over a period of 2.5 min. Maximum change in fluorescence was calculated for each well. Concentration-response curves derived from the maximum change in fluorescence were analyzed by nonlinear regression (Hill equation). […]"}},
  "note": "pIC50: −log10 of the molar value.",
  "data": [
    {"smiles": "CNCc1ccccc1Sc1c[nH]c2cc(F)ccc12", "note": "[compounds of the present invention, [2-(6-fluoro-1H-indol-3-ylsulfanyl)benzyl]methyl amine]", "values": [
      {"measurement": "Systolic arterial blood pressure (Change from baseline (mean ± SD)) (10-380 min)", "setting": "[1]; 0.25 mg/kg by gavage", "result": "−4.26 ± 5.98"},
      {"measurement": "Systolic left ventricular pressure (Change from baseline (mean ± SD)) Post-dose period I (10-380 min)", "setting": "[1]; 0.25 mg/kg by gavage", "result": "−3.82 ± 3.42^♀"},
      {"measurement": "Systolic arterial blood pressure (Change from baseline (mean ± SD)) (10-380 min)", "setting": "[1]; 0.50 mg/kg by gavage", "result": "−9.77 ± 5.39"},
      {"measurement": "Systolic left ventricular pressure (Change from baseline (mean ± SD)) Post-dose period I (10-380 min)", "setting": "[1]; 0.50 mg/kg by gavage", "result": "−11.13 ± 4.05^♂♀"},
      {"measurement": "Systolic arterial blood pressure (Change from baseline (mean ± SD)) (10-380 min)", "setting": "[1]; 1.00 mg/kg by gavage", "result": "−6.30 ± 6.63"},
      {"measurement": "Systolic left ventricular pressure (Change from baseline (mean ± SD)) Post-dose period I (10-380 min)", "setting": "[1]; 1.00 mg/kg by gavage", "result": "−3.08 ± 5.37^♂,♀"},
      {"measurement": "pIC50", "setting": "[2]", "result": 9.40},
      {"measurement": "pIC50", "setting": "[3]", "result": 8.36},
      {"measurement": "Ki rat 5-HT2A receptor higher than human 5-HT2A receptor", "setting": "[4]", "result": "~40", "unit": "fold"},
      {"measurement": "Kb", "setting": "[5]", "result": 64, "unit": "nM"}
    ]}
  ]
}
